Where a SMILES comes first, the peptide text is derived from it. [ ]: non-standard residue; d: D form. ξ: configuration not given here. ξαMeBip(2'-Et,4'-OMe) = CCc1cc(OC)ccc1-c1ccc(CC(C)(N)C(=O)O)cc1; ξαMePhe(2,6-F2) = CC(N)(Cc1c(F)cccc1F)C(=O)O; ξαMePhe(2-F) = CC(N)(Cc1ccccc1F)C(=O)O; ξhhPhe = NC(CCCc1ccccc1)C(=O)O; ξαMeD = CC(N)(CC(=O)O)C(=O)O; ξαMeP = CC1(C(=O)O)CCCN1; Ac5c = NC1(C(=O)O)CCCC1; Ac3c = NC1(C(=O)O)CC1
System: RIN5F (Rat Insulinoma) cells
Experiment: In vitro glucose-dependent insulin secretion (RIN5F cell assay)
Format: cell-based
Conditions: 16.7-mM glucose load, n = 3, mean ± S.D.
Protocol: RIN5F (Rat Insulinoma) cells were cultured in RPMI 1640 medium supplemented with sodium pyruvate (1 mM) HEPES and Glucose (4.5 g/L) in a humidified incubator (5% CO2), at 37° C. After trypsinization, RIN5F cells were seeded at a concentration of 0.2×10^6 cells per well, in 12 well plates. The cells were grown overnight to 80% confluence and insulin secretion experiments were performed as follows (Montrose-Rafizadeh C., et al., Mol. Cell. Endo. 1997, 130, 109.; Wang, X., et al., Endocrinology 2001, 5, 1820).
The cells were washed once with PBS solution followed by 40 min. incubation in fresh Krebs-Ringer Balanced Buffer containing NaCl (115 mmol/L), KCl (4.7 mmol/L), CaCl2 (1.28 mmol/L), MgSO4.7H2O (1.2 mmol/L), KH2PO4 (1.2 mmol/L), NaHCO3 (10 mmol/L) and HEPES (25 mmol/L), containing Glucose (1.1 mM) and B.S.A (0.5%), pH 7.4. The buffer was replaced after 40 min. and the cells were incubated (37° C.) with the test peptidomimetics, at different concentration, for 30 min., both in the presence (16.7 mM) and absence (0 mM) of glucose load. The supernatant was collected and the insulin amount was measured by ultra sensitive Rat insulin ELISA kit (Crystal Chem, IL). The protein was estimated in the supernatant using Bicinchoninic Acid kit, according to the manufacturer's protocol (Sigma Aldrich, MO). The total insulin content obtained in Pico-gram (pg) was divided with the total protein (μg) in order to normalize for differences in cell density between wells.

| SMILES | Insulin secretion (0.1 nM test compd.) | Insulin secretion (1 nM test compd.) | Insulin secretion (10 nM test compd.) |
| --- | --- | --- | --- |
| CCc1cc(OC)ccc1-c1ccc(CC(C)(NC(=O)[C@H](CC(=O)O)NC(=O)[C@H](CO)NC(=O)[C@@H](NC(=O)[C@H](Cc2ccccc2)NC(=O)[C@@H](NC(=O)CNC(=O)[C@H](CCC(N)=O)NC(=O)[C@H](CO)NC(=O)[C@H](Cc2c[nH]cn2)NC(=O)[C@@H](N)C(C)C)[C@@H](C)O)[C@@H](C)O)C(=O)NC(CCCc2ccccc2)C(N)=O)cc1 (stereo partly drawn) [compound 5] (H-VHSQGTFTSD[ξαMeBip(2'-Et,4'-OMe)][ξhhPhe]-NH2) | 12.1 ± 0.51 pg/µg/h | 14.1 ± 0.19 pg/µg/h | 28.1 ± 0.29 pg/µg/h |
| CCc1cc(OC)ccc1-c1ccc(CC(C)(NC(=O)[C@H](CC(=O)O)NC(=O)[C@H](CO)NC(=O)[C@@H](NC(=O)[C@H](Cc2ccccc2)NC(=O)[C@@H](NC(=O)CNC(=O)[C@H](CCC(N)=O)NC(=O)C2(C)CCCN2C(=O)[C@H](Cc2c[nH]cn2)NC(=O)[C@@H](N)C(C)C)[C@@H](C)O)[C@@H](C)O)C(=O)NC(CCCc2ccccc2)C(N)=O)cc1 (stereo partly drawn) [compound 8] (H-VH[ξαMeP]QGTFTSD[ξαMeBip(2'-Et,4'-OMe)][ξhhPhe]-NH2) | 12.6 ± 0.25 pg/µg/h | 15.3 ± 0.31 pg/µg/h | 29.7 ± 0.48 pg/µg/h |
| CCc1cc(OC)ccc1-c1ccc(CC(C)(NC(=O)[C@H](CC(=O)O)NC(=O)[C@H](CO)NC(=O)[C@@H](NC(=O)[C@H](Cc2ccccc2)NC(=O)[C@@H](NC(=O)CNC(=O)[C@H](CCC(N)=O)NC(=O)C2(NC(=O)[C@H](Cc3c[nH]cn3)NC(=O)[C@@H](N)C(C)C)CC2)[C@@H](C)O)[C@@H](C)O)C(=O)NC(CCCc2ccccc2)C(N)=O)cc1 (stereo partly drawn) [compound 10] (H-VH[Ac3c]QGTFTSD[ξαMeBip(2'-Et,4'-OMe)][ξhhPhe]-NH2) | 12.0 ± 0.14 pg/µg/h | 14.3 ± 0.12 pg/µg/h | 27.8 ± 0.32 pg/µg/h |
| CCc1cc(OC)ccc1-c1ccc(CC(C)(NC(=O)[C@H](CC(=O)O)NC(=O)[C@H](CO)NC(=O)[C@@H](NC(=O)[C@H](Cc2ccccc2)NC(=O)[C@@H](NC(=O)CNC(=O)[C@H](CCC(=O)O)NC(=O)C2(NC(=O)[C@H](Cc3c[nH]cn3)NC(=O)[C@@H](N)C(C)C)CCCC2)[C@@H](C)O)[C@@H](C)O)C(=O)NC(CCCc2ccccc2)C(N)=O)cc1 (stereo partly drawn) [compound 15] (H-VH[Ac5c]EGTFTSD[ξαMeBip(2'-Et,4'-OMe)][ξhhPhe]-NH2) | 15.3 ± 0.19 pg/µg/h | 21.2 ± 0.11 pg/µg/h | 35.5 ± 0.19 pg/µg/h |
| CCc1cc(OC)ccc1-c1ccc(CC(C)(NC(=O)[C@H](CC(=O)O)NC(=O)[C@H](CO)NC(=O)[C@@H](NC(=O)C(C)(Cc2ccccc2F)NC(=O)[C@@H](NC(=O)CNC(=O)[C@H](CCC(N)=O)NC(=O)C2(C)CCCN2C(=O)[C@H](Cc2c[nH]cn2)NC(=O)[C@@H](N)C(C)C)[C@@H](C)O)[C@@H](C)O)C(=O)NC(CCCc2ccccc2)C(N)=O)cc1 (stereo partly drawn) [compound 20] (H-VH[ξαMeP]QGT[ξαMePhe(2-F)]TSD[ξαMeBip(2'-Et,4'-OMe)][ξhhPhe]-NH2) | 11.1 ± 0.12 pg/µg/h | 13.1 ± 0.13 pg/µg/h | 19.0 ± 0.16 pg/µg/h |
| CCc1cc(OC)ccc1-c1ccc(CC(C)(NC(=O)[C@H](CC(=O)O)NC(=O)[C@H](CO)NC(=O)[C@@H](NC(=O)C(C)(Cc2c(F)cccc2F)NC(=O)[C@@H](NC(=O)CNC(=O)[C@H](CCC(N)=O)NC(=O)[C@H](CO)NC(=O)[C@H](Cc2c[nH]cn2)NC(=O)[C@@H](N)C(C)C)[C@@H](C)O)[C@@H](C)O)C(=O)NC(CCCc2ccccc2)C(N)=O)cc1 (stereo partly drawn) [compound 25] (H-VHSQGT[ξαMePhe(2,6-F2)]TSD[ξαMeBip(2'-Et,4'-OMe)][ξhhPhe]-NH2) | 12.6 ± 0.20 pg/µg/h | 15.9 ± 0.31 pg/µg/h | 28.4 ± 0.11 pg/µg/h |
| CCc1cc(OC)ccc1-c1ccc(CC(C)(NC(=O)C(C)(CC(=O)O)NC(=O)[C@H](CO)NC(=O)[C@@H](NC(=O)[C@H](Cc2ccccc2)NC(=O)[C@@H](NC(=O)CNC(=O)[C@H](CCC(N)=O)NC(=O)C2(C)CCCN2C(=O)[C@H](Cc2c[nH]cn2)NC(=O)[C@@H](N)C(C)C)[C@@H](C)O)[C@@H](C)O)C(=O)NC(CCCc2ccccc2)C(N)=O)cc1 (stereo partly drawn) [compound 60] (H-VH[ξαMeP]QGTFTS[ξαMeD][ξαMeBip(2'-Et,4'-OMe)][ξhhPhe]-NH2) | 15.6 ± 0.33 pg/µg/h | 21.8 ± 0.16 pg/µg/h | 35.6 ± 0.26 pg/µg/h |
